Experimental data from patent US9045468B2, “2,5-methano- and 2,5-ethano-tetrahydrobenzazepine derivatives and use thereof to block reuptake of norepinephrine, dopamine, and serotonin” (Albany Molecular Research, Inc., priority 2010, dated 2015).
Read-outs that look alike come from different tables or passages of the source.

Assays:
hNET = hNET (Homo sapiens (Human), UniProt P23975); experiment: NET radioligand binding assay ([3H]nisoxetine, HEK-293 membranes)
Protocol: (§1) The medium was removed from the flasks and the cells rinsed with HBSS without Ca and without Mg. The cells were then incubated for 5-10 minutes in 10 mM Tris-Cl, pH 7.5, 5 mM EDTA before the cells were lifted with a combination of pipetting and scraping, as needed. The cell suspension was collected into centrifuge bottles and homogenized for 30 seconds with a Polytron homogenizer. The suspension was centrifuged for 30 minutes at 32,000×g, 4° C. The supernatant was decanted and the pellet resuspended and homogenized in 50 mM Tris-Cl, pH 7.5, 1 mM EDTA for 10 seconds. The suspension was then centrifuged again for 30 minutes at 32,000×g, 4° C. The supernatant was decanted and the pellet resuspended in 50 mM Tris-Cl, pH 7.5, 1 mM EDTA and briefly homogenized. A Bradford assay (Bio-rad) was performed and the membrane preparation diluted to 2 mg/ml with 50 mM Tris-Cl, pH 7.5, 1 mM EDTA. Aliquots were prepared, and then frozen and stored at −80° C.
Compounds were dissolved in 100% DMSO at a concentration 100 times the desired highest assay concentration, serially diluted 1:3 in 100% DMSO, and 1.0 μl/well of each solution was dispensed to a Nunc polypropylene, round bottom, 384-well plate. […] 50 μl/well of a 2× membrane preparation (0.4 mg/ml in 50 mM Tris-Cl, pH 7.5, 120 mM NaCl, 5 mM KCl) and 50 μl/well of a 2× radioligand solution (4 nM [^3H]nisoxetine in 50 mM Tris-Cl, pH 7.5, 120 mM NaCl, 5 mM KCl) were added to the well and the reaction incubated for 1 hour at room temperature. The contents of the assay plate were then transferred to a Millipore MultiscreenHTS GF/B filter plate which was pretreated with 0.5% PEI for at least one hour. The plate was vacuum filtered and washed with 7 washes of 100 μl/well 50 mM Tris-Cl, pH 7.5, 120 mM NaCl, 5 mM KCl chilled to 4° C. The filtration and washing were completed in less than 90 seconds. The plates were air-dried overnight, 12 μl/well of MicroScint scintillation fluid added, and the plates counted in a Trilux.
(§2) Each plate was run in triplicate, and the concentration response curve thus generated was fit using the four-parameter dose response equation, Y=Bottom+(Top-Bottom)/(1+10^((Log IC50−X)*HillSlope)) in order to determine the IC50 value for each compound. The radioligand concentration chosen for each assay corresponds to the Kd concentration determined through saturation binding analysis for each assay.

hSERT = hSERT (Homo sapiens (Human), UniProt P31645); experiment: SERT radioligand binding assay ([125I]RTI-55, HEK-293 membranes)
Protocol: as §1
Compounds were dissolved in 100% DMSO at a concentration 100 times the desired highest assay concentration, serially diluted 1:3 in 100% DMSO, and 0.4 μl/well of each solution was dispensed to a Nunc polypropylene, round bottom, 384-well plate. […] The contents of the assay plate were then transferred to a Millipore MultiscreenHTS GF/B filter plate which was pretreated with 0.5% PEI for at least one hour. The plate was vacuum filtered and washed with 7 washes of […] 50 mM Tris-Cl, pH 7.5, 120 mM NaCl, 5 mM KCl chilled to 4° C. The filtration and washing were completed in less than 90 seconds. The plates were air-dried overnight, 12 μl/well of MicroScint scintillation fluid added, and the plates counted in a Trilux.
as §2

hDAT = hDAT (Homo sapiens (Human), UniProt Q01959); experiment: DAT radioligand binding assay ([125I]RTI-55, HEK-293 membranes)
Protocol: as §1, with “Recombinant HEK-293 cells expressing either the hSERT, hDAT, or hNET proteins were harvested from T-175 flasks as follows. The medium” for “The medium”
Compounds were dissolved in 100% DMSO at a concentration 100 times the desired highest assay concentration, serially diluted 1:3 in 100% DMSO, and 0.4 μl/well of each solution was dispensed to a Nunc polypropylene, round bottom, 384-well plate. […] 20 ul/well of a 2× membrane preparation (12.5 μg/ml in 30 mM sodium phosphate buffer, pH 7.9 at 4° C.) and 20 μl/well of a 2× radioligand solution (250 pM [^125I]RTI-55 in 30 mM sodium phosphate buffer, pH 7.9 at 4° C.) were added to the well and the reaction incubated for 1 hour at room temperature. The contents of the assay plate were then transferred to a Millipore MultiscreenHTS GF/B filter plate which was pretreated with 0.5% PEI for at least one hour. The plate was vacuum-filtered and washed with 7 washes of 100 μl/well 50 mM Tris-Cl, pH 7.5, 120 mM NaCl, 5 mM KCl chilled to 4° C. The filtration and washing were completed in less than 90 seconds. The plates were air-dried overnight, 12 μl/well of MicroScint scintillation fluid added, and the plates counted in a Trilux.
as §2

[1] = recombinant HEK-293 membranes, [3H]nisoxetine, read-out: Binding Affinity (IC50, nM) NET
[2] = recombinant HEK-293 membranes, [125I]RTI-55, read-out: Binding Affinity (IC50, nM) SERT
[3] = recombinant HEK-293 membranes, [125I]RTI-55, read-out: Binding Affinity (IC50, nM) DAT

Chain of hNET (P23975 whole entry): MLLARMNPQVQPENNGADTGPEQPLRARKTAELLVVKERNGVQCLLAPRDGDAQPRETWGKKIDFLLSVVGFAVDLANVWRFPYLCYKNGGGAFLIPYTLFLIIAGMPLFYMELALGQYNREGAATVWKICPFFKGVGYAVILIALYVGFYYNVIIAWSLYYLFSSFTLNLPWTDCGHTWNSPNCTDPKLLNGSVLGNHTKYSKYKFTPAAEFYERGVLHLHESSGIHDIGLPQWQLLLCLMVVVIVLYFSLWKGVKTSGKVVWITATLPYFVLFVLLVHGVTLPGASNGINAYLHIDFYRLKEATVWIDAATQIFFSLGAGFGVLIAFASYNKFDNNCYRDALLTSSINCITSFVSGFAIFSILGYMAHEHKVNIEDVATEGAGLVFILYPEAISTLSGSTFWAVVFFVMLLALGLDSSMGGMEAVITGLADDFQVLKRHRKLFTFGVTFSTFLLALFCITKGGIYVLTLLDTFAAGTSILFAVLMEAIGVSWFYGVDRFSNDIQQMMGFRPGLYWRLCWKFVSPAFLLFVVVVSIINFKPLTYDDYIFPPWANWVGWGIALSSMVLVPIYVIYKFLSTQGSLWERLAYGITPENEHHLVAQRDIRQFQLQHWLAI
Chain of hSERT (P31645 whole entry): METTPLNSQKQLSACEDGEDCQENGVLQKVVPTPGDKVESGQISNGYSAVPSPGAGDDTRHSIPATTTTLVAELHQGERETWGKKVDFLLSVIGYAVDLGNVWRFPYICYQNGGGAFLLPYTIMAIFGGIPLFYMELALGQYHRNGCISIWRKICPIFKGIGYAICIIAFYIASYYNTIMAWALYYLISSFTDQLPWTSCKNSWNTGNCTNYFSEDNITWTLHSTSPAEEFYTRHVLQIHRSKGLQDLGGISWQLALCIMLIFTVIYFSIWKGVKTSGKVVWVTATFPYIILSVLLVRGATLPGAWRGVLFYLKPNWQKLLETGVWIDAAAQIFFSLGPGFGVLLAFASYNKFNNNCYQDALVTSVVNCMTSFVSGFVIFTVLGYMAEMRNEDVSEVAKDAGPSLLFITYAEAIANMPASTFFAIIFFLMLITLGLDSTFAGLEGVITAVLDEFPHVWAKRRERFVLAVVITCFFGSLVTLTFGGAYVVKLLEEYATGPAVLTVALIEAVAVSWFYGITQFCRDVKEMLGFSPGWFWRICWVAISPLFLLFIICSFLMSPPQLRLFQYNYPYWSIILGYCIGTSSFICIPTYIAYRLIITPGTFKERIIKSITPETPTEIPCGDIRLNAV
Chain of hDAT (Q01959 whole entry): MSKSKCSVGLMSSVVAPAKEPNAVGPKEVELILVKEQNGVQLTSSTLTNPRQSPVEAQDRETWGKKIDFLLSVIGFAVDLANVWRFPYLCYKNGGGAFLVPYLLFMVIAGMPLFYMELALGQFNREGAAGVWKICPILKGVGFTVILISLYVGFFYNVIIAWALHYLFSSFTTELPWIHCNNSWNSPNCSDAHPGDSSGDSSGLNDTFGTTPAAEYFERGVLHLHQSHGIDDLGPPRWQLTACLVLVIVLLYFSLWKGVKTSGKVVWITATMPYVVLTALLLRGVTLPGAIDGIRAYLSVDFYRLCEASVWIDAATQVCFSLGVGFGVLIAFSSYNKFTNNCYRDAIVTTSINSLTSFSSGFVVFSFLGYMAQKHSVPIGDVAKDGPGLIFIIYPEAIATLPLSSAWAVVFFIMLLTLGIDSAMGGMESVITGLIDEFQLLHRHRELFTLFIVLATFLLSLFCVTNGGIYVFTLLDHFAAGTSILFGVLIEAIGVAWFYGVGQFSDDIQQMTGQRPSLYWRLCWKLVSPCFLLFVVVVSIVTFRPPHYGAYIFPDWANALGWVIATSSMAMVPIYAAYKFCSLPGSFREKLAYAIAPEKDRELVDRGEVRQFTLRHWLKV

SMILES | IC50 (hNET; [1]) | IC50 (hSERT; [2]) | IC50 (hDAT; [3]) | IC50 (hNET) | IC50 (hSERT) | IC50 (hDAT)
FC(F)Oc1ccc(-c2ccc3c(c2)CN2CCC3(c3ccc(Cl)cc3)C2)nn1 (single isomer, unassigned) [6(+), 5-(4-chlorophenyl)-8(6-(difluoromethoxy)pyridazin-3-yl)-2,5-methano-2,3,4,5-tetrahydro-1H-benzo[c]azepine] | 1170 nM | 19.3 nM | 1060 nM |  |  | 
Fc1ccc(C23CCN(CC2)Cc2cc(-c4ccc(C(F)(F)F)nn4)ccc23)cc1Cl [Example 53, 5-(3-chloro-4-fluorophenyl)-2,5-ethano-8-(6-(trifluoromethyl)pyridazin-3-yl)-2,3,4,5-tetrahydro-1H-benzo[c]azepine] | 345 nM | 2.1 nM | 120 nM |  |  | 
Fc1ccc(C23CCN(Cc4cc(-c5ccc(C(F)(F)F)nn5)ccc42)C3)cc1Cl (single isomer, unassigned) [56(+), 5-(3-chloro-4-fluorophenyl)-2,5-methano-8-(6-(trifluoromethyl)pyridazin-3-yl)-2,3,4,5-tetrahydro-1H-benzo[c]azepine] | 78.6 nM | 2.4 nM | 11.4 nM |  |  | 
Clc1ccc(C23CCN(Cc4cc(-c5ccc6ncnn6c5)ccc42)C3)cc1Cl (single isomer, unassigned) [10(−), 8-([1,2,4]triazolo[1,5-a]pyridin-6-yl)-5-(3,4-dichlorophenyl)-2,5-methano-2,3,4,5-tetrahydro-1H-benzo[c]azepine] | 73.7 nM | 5.6 nM | 37.5 nM |  |  | 
Fc1ccc(C23CCN(Cc4cc(-c5ccc(C(F)(F)F)nn5)ccc42)C3)cc1Cl (single isomer, unassigned) [56(−), 5-(3-chloro-4-fluorophenyl)-2,5-methano-8-(6-(trifluoromethyl)pyridazin-3-yl)-2,3,4,5-tetrahydro-1H-benzo[c]azepine] | 798 nM | 57.8 nM | 243 nM |  |  | 
Fc1ccc(C23CCN(CC2)Cc2cc(-c4ccc5ncnn5c4)ccc23)cc1Cl [Example 54, 8-([1,2,4]triazolo[1,5-a]pyridin-6-yl)-5-(3-chloro-4-fluorophenyl)-2,5-ethano-2,3,4,5-tetrahydro-1H-benzo[c]azepine] | 541 nM | 4.4 nM | 78 nM |  |  | 
Clc1ccc(C23CCN(Cc4cc(-c5ccc6ncnn6c5)ccc42)C3)cc1 (single isomer, unassigned) [3(+), 8-([1,2,4]triazolo[1,5-a]pyridin-6-yl)-5-(4-chlorophenyl)-2,5-methano-2,3,4,5-tetrahydro-1H-benzo[c]azepine] | 817 nM | 9.4 nM | 340 nM |  |  | 
Clc1ccc(C23CCN(CC2)Cc2cc(OCCCc4cccnc4)ccc23)cc1 [Example 36, 5-(4-chlorophenyl)-2,5-ethano-8-(3-(pyridin-3-yl)propoxy)-2,3,4,5-tetrahydro-1H-benzo[c]azepine] | 62.3 nM | 1.2 nM | 65.7 nM |  |  | 
Fc1ccc(C23CCN(Cc4cc(-c5ccc6ncnn6c5)ccc42)C3)cc1Cl (single isomer, unassigned) [55(−), 8-([1,2,4]triazolo[1,5-a]pyridin-6-yl)-5-(3-chloro-4-fluorophenyl)-2,5-methano-2,3,4,5-tetrahydro-1H-benzo[c]azepine] | 175 nM | 2.2 nM | 35.3 nM |  |  | 
FC(F)(F)c1ccc(Oc2ccc3c(c2)CN2CCC3(c3cccc(Cl)c3)CC2)nn1 [Example 49, 5-(3-chlorophenyl)-2,5-ethano-8-(6-(trifluoromethyl)pyridazin-3-yloxy)-2,3,4,5-tetrahydro-1H-benzo[c]azepine] | 451 nM | 24.2 nM | 55.9 nM |  |  | 
Cc1nnc2ccc(-c3ccc4c(c3)CN3CCC4(c4ccc(Cl)cc4)CC3)cn12 [Example 20, 5-(4-chlorophenyl)-2,5-ethano-8-(3-methyl-[1,2,4]triazolo[4,3-a]pyridin-6-yl)-2,3,4,5-tetrahydro-1H-benzo[c]azepine] | 1020 nM | 12.1 nM | 220 nM |  |  | 
N#Cc1cccc(-c2ccc3c(c2)CN2CCC3(c3ccc(Cl)cc3)CC2)c1 [Example 27, 3-(5-(4-chlorophenyl)-2,5-ethano-2,3,4,5-tetrahydro-1H-benzo[c]azepin-8-yl)benzonitrile] |  |  | 135 nM | 355 nM | 3.4 nM | 
FC(F)(F)c1ccc(-c2ccc3c(c2)CN2CCC3(c3ccc(Cl)cc3)CC2)nn1 [Example 15, 5-(4-chlorophenyl)-2,5-ethano-8-(6-(trifluoromethyl)pyridazin-3-yl)-2,3,4,5-tetrahydro-1H-benzo[c]azepine] | 384 nM |  |  |  | 2.6 nM | 121 nM
Cc1cc2ncnn2cc1-c1ccc2c(c1)CN1CCC2(c2ccc(Cl)c(Cl)c2)CC1 [Example 43, 5-(3,4-dichlorophenyl)-2,5-ethano-8-(7-methyl-[1,2,4]triazolo[1,5-a]pyridin-6-yl)-2,3,4,5-tetrahydro-1H-benzo[c]azepine] | 373 nM | 18.9 nM | 43.8 nM |  |  | 
Clc1ccc(C23CCN(CC2)Cc2cc(N4CCOCC4)ccc23)cc1 [Example 28, 4-(5-(4-chlorophenyl)-2,5-ethano-2,3,4,5-tetrahydro-1H-benzo[c]azepin-8-yl)morpholine] | 438 nM | 8 nM | 58.9 nM |  |  | 
Oc1ccc2c(c1)CN1CCC2(c2ccc(Cl)cc2)CC1 [Example 13, 5-(4-chlorophenyl)-2,5-ethano-2,3,4,5-tetrahydro-1H-2-benzo[c]azepin-8-ol] | 691 nM | 16.3 nM | 21.1 nM |  |  | 
Clc1ccc(C23CCN(CC2)Cc2cc(-c4cncnc4)ccc23)cc1 [Example 16, 5-(4-chlorophenyl)-2,5-ethano-8-(pyrimidin-5-yl)-2,3,4,5-tetrahydro-1H-benzo[c]azepine] | 2930 nM | 7.3 nM | 156 nM |  |  | 
CCS(=O)(=O)N1CCN(c2ccc(C34CCN(CC3)Cc3cc(N5CCN(S(=O)(=O)CC)CC5)ccc34)cc2)CC1 [Example 31, 8-(4-(ethylsulfonyl)piperazin-1-yl)-5-(4-(4-(ethylsulfonyl)piperazin-1-yl)phenyl)-2,5-ethano-2,3,4,5-tetrahydro-1H-benzo[c]azepine] | 8300 nM | 2320 nM | 4020 nM |  |  | 
